Several values for one entry are separate records, joined by “and”; a condition that tells them apart may be missing. Equal values may be shown once. Read-outs that look alike come from different tables or passages of the source.

Test [1] has as its target T1, PKM2 N75L (Homo sapiens, UniProt P14618, N75L).
T1 construct: made in house; host or cells: E. coli BL21(DE3) pLysS
In words: PKM2-LDH coupled pyruvate kinase activity assay. The note with it: 4200 nM PKM2 N75L in presence of 2 mM of the labelled AA; PEP 0.025–8 mM, ADP 0.8 mM. Type of test: biochemical.
Protocol: (§3) The decrease in absorbance at 340 nm was recorded for a minute to monitor the progress of the reactions.

The target of test [2] is T2, PKM2 N70D (Homo sapiens, UniProt P14618, N70D). The experiment in a line: PKM2-LDH coupled pyruvate kinase activity assay. The following applies: 65 nM PKM2 N70D in presence of 2 mM of the labelled AA; PEP 0.025–8 mM, ADP 0.8 mM.
Protocol: as §3
Test [3] has as its target T2, PKM2 N70D. In words: Gel-filtration study of oligomeric state. Also on record: made in house; host or cells: E. coli BL21(DE3) pLysS. The note with it: 0.1 mg/ml PKM2 N70D, 10 mM AA. On the procedure: (§1) The flow rate was kept constant at 0.5 ml/min using an AKTA Pure FPLC system (GE Healthcare Life Sciences, Marlborough, MA). All AA concentrations used in the experiments were fixed at 10 mM. Column calibration was conducted using gel-filtration molecular weight standards (Bio-Rad) containing bovine thyroglobulin (670 kDa), bovine γ-globulin (158 kDa), chicken ovalbumin (44 kDa), horse myoglobin (17 kDa), and vitamin B12 (1.35 kDa). The eluted protein peak was observed using UV absorbance at 280 nm. To normalize the lowest and highest intensity value, they were set to 0% and 100%, respectively, which was plotted against elution volume in GraphPad Prism (San Diego, CA).

In test [4] the target is T3, PKM2 R106A (Homo sapiens, UniProt P14618, R106A).
T3 construct: made in house; host or cells: E. coli BL21(DE3) pLysS
In words: Ligand binding assay, intrinsic tryptophan fluorescence quenching. The following applies: for decrease of affinity for the AA relative to wtPKM2: PKM2 R106A versus wtPKM2; for weakening of ADP binding affinity versus absence of any AAs: PKM2 R106A in the presence of the labelled AA. Here is the method: (§2) All ligand binding studies were conducted in a buffer containing 1.6 μM enzyme dissolved in 20 mM Tris-HCl (pH 7.5) and 150 mM KCl. […] The decrease of intrinsic tryptophan fluorescence with increasing substrate concentration was measured using a Cary Eclipse Fluorescence Spectrophotometer (Agilent Technologies, Santa Clara, CA). To determine the binding affinity of wtPKM2 and the variants for the AAs mentioned previously, the enzymes were dissolved in the buffer followed by monitoring fluorescence quenching as the AA concentration was increased. The wavelength used to excite PKM2 was set at 295 nm, while the emission wavelength was 340 nm with slit widths of 5 and 10 nm, respectively. The fluorescence intensity values were used to calculate fractional saturation, which was fitted to the one-site specific binding Eq (3), or the Hill Eq (4) using GraphPad Prism (San Diego, CA), Y=Bmax×X/Kd+X (3) Y=Bmax×x^h/Kdh+x^h (4) where Bmax is maximum binding, Y is fractional saturation, h is the Hill coefficient, Kd is dissociation constant, and X is ligand concentration.

Test [5] concerns the target T4, wtPKM2 (Homo sapiens, UniProt P14618).
T4 construct: made in house; host or cells: E. coli BL21(DE3) pLysS
The experiment in a line: PKM2-LDH coupled pyruvate kinase activity assay. Type of test: biochemical. The following applies: ADP 0.8 mM; for Vmax / kcat: 10 nM wtPKM2 in presence of 2 mM of the labelled AA, PEP varied.
Protocol: as §3

Test [6] has as its target T3, PKM2 R106A. The experiment in a line: PKM2-LDH coupled pyruvate kinase activity assay. Type of test: biochemical. The following applies: for Vmax / kcat: 50 nM PKM2 R106A in presence of 2 mM of the labelled AA (Val 10 mM), PEP 0.025–8 mM, ADP 0.8 mM, Cys data fitted with allosteric sigmoidal equation; for decrease of catalytic efficiency of PKM2 R106A: in the presence of Val (10 mM) and Cys (2 mM), versus no AA.
Protocol: as §3

The target in test [7] is T4, wtPKM2. The following applies: cited from earlier work.
Test [8] concerns the target T1, PKM2 N75L. In words: Gel-filtration study of oligomeric state. The note with it: 0.1 mg/ml PKM2 N75L, 10 mM AA. On the procedure:
as §1

Test [9] has as its target T3, PKM2 R106A. The experiment in a line: Gel-filtration study of oligomeric state. The note with it: 0.1 mg/ml PKM2 R106A, 10 mM AA. Here is the method: as §1
The target in test [10] is T4, wtPKM2. The experiment in a line: Gel-filtration study of oligomeric state. The note with it: 0.1 mg/ml wtPKM2, 10 mM AA. On the procedure: as §1
Test [11] addresses T4, wtPKM2. Also on record: method as in PMID 32144209. The following applies: wtPKM2 in the presence of Val; cited from earlier work.
The target of test [12] is T2, PKM2 N70D. In words: Ligand binding assay, intrinsic tryptophan fluorescence quenching. Also on record: made in house; host or cells: E. coli BL21(DE3) pLysS. The note with it: no AA ligand, read-out: Kd, ADP as titrant. Here is the method: as §2
Test [13] concerns the target T1, PKM2 N75L. Described as above. The following applies: 1.6 μM PKM2 N75L, no AA ligand; read-out: Kd, ADP as titrant. On the procedure: The decrease of intrinsic tryptophan fluorescence with increasing substrate concentration was measured using a Cary Eclipse Fluorescence Spectrophotometer (Agilent Technologies, Santa Clara, CA). To determine the binding affinity of wtPKM2 and the variants for the AAs mentioned previously, the enzymes were dissolved in the buffer followed by monitoring fluorescence quenching as the AA concentration was increased. The wavelength used to excite PKM2 was set at 295 nm, while the emission wavelength was 340 nm with slit widths of 5 and 10 nm, respectively. The fluorescence intensity values were used to calculate fractional saturation, which was fitted to the one-site specific binding Eq (3), or the Hill Eq (4) using GraphPad Prism (San Diego, CA), Y=Bmax×X/Kd+X (3) Y=Bmax×x^h/Kdh+x^h (4) where Bmax is maximum binding, Y is fractional saturation, h is the Hill coefficient, Kd is dissociation constant, and X is ligand concentration.

[14] abbreviates: 1.6 μM PKM2 R106A, read-out: Kd for the AA (AA as titrant).
Where [15] appears, read: 2 mM AA, 10 nM enzyme, PEP 0.15–8 mM, versus no AA.

T4 sequence (P14618 whole entry): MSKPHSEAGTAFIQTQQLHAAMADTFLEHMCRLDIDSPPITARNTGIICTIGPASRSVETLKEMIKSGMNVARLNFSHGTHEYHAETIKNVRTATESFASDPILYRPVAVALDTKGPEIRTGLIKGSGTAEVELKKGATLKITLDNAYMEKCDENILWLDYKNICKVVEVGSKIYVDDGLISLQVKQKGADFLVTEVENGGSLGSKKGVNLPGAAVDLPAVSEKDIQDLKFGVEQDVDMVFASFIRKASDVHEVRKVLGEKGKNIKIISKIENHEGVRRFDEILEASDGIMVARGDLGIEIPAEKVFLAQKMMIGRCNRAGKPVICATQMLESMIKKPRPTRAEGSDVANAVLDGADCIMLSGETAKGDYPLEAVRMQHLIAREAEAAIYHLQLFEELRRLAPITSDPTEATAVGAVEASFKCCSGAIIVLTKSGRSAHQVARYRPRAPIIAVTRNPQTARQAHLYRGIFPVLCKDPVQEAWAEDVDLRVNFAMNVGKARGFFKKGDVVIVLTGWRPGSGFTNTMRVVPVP
T3 sequence (P14618 whole entry R106A): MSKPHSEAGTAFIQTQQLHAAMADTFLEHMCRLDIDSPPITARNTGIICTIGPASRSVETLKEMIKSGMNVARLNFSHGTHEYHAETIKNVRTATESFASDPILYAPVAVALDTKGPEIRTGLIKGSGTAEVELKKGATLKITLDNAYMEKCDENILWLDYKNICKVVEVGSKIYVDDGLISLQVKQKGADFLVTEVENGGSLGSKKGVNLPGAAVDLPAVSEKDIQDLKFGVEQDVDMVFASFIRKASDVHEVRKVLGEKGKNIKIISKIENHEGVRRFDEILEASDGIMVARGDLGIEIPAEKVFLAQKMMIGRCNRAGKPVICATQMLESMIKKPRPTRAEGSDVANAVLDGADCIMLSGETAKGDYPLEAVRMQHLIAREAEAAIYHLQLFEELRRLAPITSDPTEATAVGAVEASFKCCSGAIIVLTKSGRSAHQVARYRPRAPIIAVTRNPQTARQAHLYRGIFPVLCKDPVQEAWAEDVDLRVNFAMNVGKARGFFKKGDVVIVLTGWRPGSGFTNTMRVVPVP
T1 sequence (P14618 whole entry N75L): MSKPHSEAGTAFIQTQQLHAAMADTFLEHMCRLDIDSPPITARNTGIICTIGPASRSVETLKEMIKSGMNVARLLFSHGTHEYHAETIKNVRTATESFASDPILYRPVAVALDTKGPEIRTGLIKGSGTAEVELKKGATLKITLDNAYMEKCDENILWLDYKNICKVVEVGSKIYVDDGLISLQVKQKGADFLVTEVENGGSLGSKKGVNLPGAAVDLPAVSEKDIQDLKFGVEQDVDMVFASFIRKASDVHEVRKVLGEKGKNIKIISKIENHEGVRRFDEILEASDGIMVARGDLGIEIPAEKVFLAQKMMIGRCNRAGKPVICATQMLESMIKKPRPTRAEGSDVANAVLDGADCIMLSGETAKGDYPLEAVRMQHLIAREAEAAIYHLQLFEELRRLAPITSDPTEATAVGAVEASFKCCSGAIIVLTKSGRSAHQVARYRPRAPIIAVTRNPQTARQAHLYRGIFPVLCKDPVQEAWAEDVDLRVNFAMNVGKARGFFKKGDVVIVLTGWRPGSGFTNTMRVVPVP
T2 sequence (P14618 whole entry N70D): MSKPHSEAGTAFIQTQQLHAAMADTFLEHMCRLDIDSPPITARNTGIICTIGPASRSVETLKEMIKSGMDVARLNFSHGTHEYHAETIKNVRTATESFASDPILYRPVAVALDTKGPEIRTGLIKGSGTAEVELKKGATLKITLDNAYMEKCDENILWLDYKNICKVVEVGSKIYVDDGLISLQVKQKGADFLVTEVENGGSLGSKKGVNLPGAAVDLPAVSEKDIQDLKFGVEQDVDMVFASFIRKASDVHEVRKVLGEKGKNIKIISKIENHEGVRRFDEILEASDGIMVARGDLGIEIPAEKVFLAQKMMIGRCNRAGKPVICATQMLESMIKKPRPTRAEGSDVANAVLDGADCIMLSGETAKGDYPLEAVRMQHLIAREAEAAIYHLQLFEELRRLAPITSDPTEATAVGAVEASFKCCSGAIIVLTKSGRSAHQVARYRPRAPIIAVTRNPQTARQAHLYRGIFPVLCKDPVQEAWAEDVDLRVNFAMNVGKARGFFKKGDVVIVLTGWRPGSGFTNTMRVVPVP

On to `N[C@@H](CC(=O)O)C(=O)O` [Asp, aspartate], for which the Vmax on PKM2 N75L [1] is 51 ± 3 µM/min; at PKM2 N70D [2], 307 ± 10 µM/min; on wtPKM2 [5] it was 104 ± 2 µM/min; at PKM2 R106A [6], 295 ± 6 µM/min. The kcat is 0.012±0.0 ×10^3 min^-1 at PKM2 N75L [1], 4.7±0.1 ×10^3 min^-1 at PKM2 N70D [2], 10.4±0.2 ×10^3 min^-1 at wtPKM2 [5] and 5.9±0.1 ×10^3 min^-1 on PKM2 R106A [6]. Also, on PKM2 N70D [3], the oligomeric state change result is reported as “dimer/monomer fraction decreased”. The Kd on PKM2 R106A [4] (setting [14]) was approximately 70 µM.
As for `C=C(OP(=O)(O)O)C(=O)O` [PEP, phosphoenolpyruvate], the Kd at wtPKM2 [7] (read-out: Kd, PEP as titrant, […] wtPKM2, no AA ligand, marked (2) in S2 Table) is 10 ± 2 µM.
As to `NC(=O)C[C@H](N)C(=O)O` [Asn, asparagine], the Vmax at PKM2 N75L [1] came to 50 ± 2 µM/min; at PKM2 N70D [2], 340 ± 8 µM/min; at wtPKM2 [5] it was 113 ± 4 µM/min; at PKM2 R106A [6], 318 ± 8 µM/min. The kcat is reported as 0.012±0.0 ×10^3 min^-1 on PKM2 N75L [1], 5.2±0.3 ×10^3 min^-1 at PKM2 N70D [2], 11.3±0.4 ×10^3 min^-1 at wtPKM2 [5] and 6.3±0.2 ×10^3 min^-1 on PKM2 R106A [6]. Moreover, the oligomeric state change entry at PKM2 N70D [3] was “dimer/monomer fraction decreased”. The “decrease of affinity for the AA relative to wtPKM2” value at PKM2 R106A [4] is 2–4 fold. Besides, the Kd on PKM2 R106A [4] ([…] PKM2 R106A, read-out: Kd for the AA (AA as titrant)) is 42 ± 10 µM. On wtPKM2 [5] (setting [15]), the “increase of kcat/Km of wtPKM2” value is given as ~ 8 fold.
`N[C@@H](CS)C(=O)O` [Cys, cysteine]: the Vmax at PKM2 N75L [1] turned out to be 33 ± 3 µM/min; at PKM2 N70D [2] it was 334 ± 15 µM/min; on wtPKM2 [5] it was 65 ± 7 µM/min; on PKM2 R106A [6], 291 ± 9 µM/min. Moreover, the kcat at PKM2 N75L [1] is given as 0.008±0.0 ×10^3 min^-1; at PKM2 N70D [2] it was 5.1±0.2 ×10^3 min^-1; on wtPKM2 [5] it was 6.5±0.7 ×10^3 min^-1; on PKM2 R106A [6], 5.8±0.2 ×10^3 min^-1. The oligomeric state change result at PKM2 N70D [3] was “did not change the oligomeric state”; on PKM2 N75L [8], “the dimer/monomer fraction increased”; at PKM2 R106A [9], “resulted in a mixture of tetramer and dimer/monomer equilibrium”; on wtPKM2 [10], “shift from an active tetramer to a mixture of tetramer and dimer/monomer equilibrium”. Besides, the Kd at PKM2 R106A [4] (setting [14]) was 36 µM. Moreover, at PKM2 R106A [4], the “weakening of ADP binding affinity versus absence of any AAs” value is listed as ~ 10 fold. In addition, the “decrease of affinity for the AA relative to wtPKM2” value at PKM2 R106A [4] was 2–4 fold. In addition, the “decrease of kcat/Km of wtPKM2” value at wtPKM2 [5] (setting [15]) is ~ 4 fold. For the same compound, the “decrease of catalytic efficiency of PKM2 R106A” value on PKM2 R106A [6] is on record as 2–7 fold.
Consider `O=C(COP(=O)(O)O)[C@@H](O)[C@H](O)[C@H](O)COP(=O)(O)O` [FBP, fructose-1,6-bisphosphate], for which the Kd at wtPKM2 [7] (wtPKM2, read-out: Kd for FBP) was 0.00098 µM and 0.001 µM.
For `CC(C)[C@H](N)C(=O)O` [Val, valine], the Vmax amounted to 34 ± 2 µM/min at PKM2 N75L [1], 324 ± 37 µM/min at PKM2 N70D [2], 74 ± 5 µM/min at wtPKM2 [5] and 346 ± 12 µM/min on PKM2 R106A [6]. Besides, the kcat on PKM2 N75L [1] is on record as 0.008±0.0 ×10^3 min^-1; at PKM2 N70D [2], 4.9±0.6 ×10^3 min^-1; on wtPKM2 [5], 7.4±0.5 ×10^3 min^-1; at PKM2 R106A [6] it was 6.9±0.2 ×10^3 min^-1. Further, the oligomeric state change result was “shift from an active tetramer to a mixture of tetramer and dimer/monomer equilibrium” on wtPKM2 [11]; “did not change the oligomeric state” on PKM2 N70D [3]; “the dimer/monomer fraction increased” at PKM2 N75L [8]; “resulted in a mixture of tetramer and dimer/monomer equilibrium” on PKM2 R106A [9]. At PKM2 R106A [4] (setting [14]), the Kd was approximately 1600 µM. For the same compound, the “weakening of ADP binding affinity versus absence of any AAs” value on PKM2 R106A [4] is given as ~ 10 fold. Also, the “decrease of affinity for the AA relative to wtPKM2” value at PKM2 R106A [4] is on record as 2–4 fold. At wtPKM2 [5] (setting [15]), the “decrease of kcat/Km of wtPKM2” value is ~ 4 fold. For the same compound, the “decrease of catalytic efficiency of PKM2 R106A” value at PKM2 R106A [6] is reported as 2–7 fold.
For `Nc1ncnc2c1ncn2[C@@H]1O[C@H](COP(=O)(O)OP(=O)(O)O)[C@@H](O)[C@H]1O` [ADP, adenosine diphosphate], the Kd was 644 ± 154 µM on PKM2 N70D [12]; 257 ± 24 µM on PKM2 R106A [4] (1.6 μM PKM2 R106A, no AA ligand, read-out: Kd, ADP as titrant); 449 ± 48 µM at PKM2 N75L [13]; 237 ± 54 µM at wtPKM2 [7] ([…] wtPKM2, no AA ligand, marked (2) in S2 Table, read-out: Kd, ADP as titrant).

By Vmax is commonly meant the rate approached at saturating substrate. Usually Kd stands for the concentration at which binding is half-saturated.

(Values after paper PMC10004559, “Identification of residues involved in allosteric signal transmission from amino acid binding site of pyruvate kinase muscle isoform 2” (PLOS ONE, 2023).)
